This is an account of results in US10159672B2 (PARION SCIENCES, INC., priority 2011, dated 2018).

A word on the IC50: it is the concentration that inhibits the measured activity by half.

The target of one data set is T1, ENaC (Canis lupus familiaris, UniProt A0A8I3MKE6+A0A8I3Q679+Q95165).
T1 construct: using primary cultures of canine bronchial epithelial cells; endogenous in cells; host or cells: primary canine bronchial epithelial cells cultured at air-liquid interface
T1 sequence (A0A8I3Q679 1-649): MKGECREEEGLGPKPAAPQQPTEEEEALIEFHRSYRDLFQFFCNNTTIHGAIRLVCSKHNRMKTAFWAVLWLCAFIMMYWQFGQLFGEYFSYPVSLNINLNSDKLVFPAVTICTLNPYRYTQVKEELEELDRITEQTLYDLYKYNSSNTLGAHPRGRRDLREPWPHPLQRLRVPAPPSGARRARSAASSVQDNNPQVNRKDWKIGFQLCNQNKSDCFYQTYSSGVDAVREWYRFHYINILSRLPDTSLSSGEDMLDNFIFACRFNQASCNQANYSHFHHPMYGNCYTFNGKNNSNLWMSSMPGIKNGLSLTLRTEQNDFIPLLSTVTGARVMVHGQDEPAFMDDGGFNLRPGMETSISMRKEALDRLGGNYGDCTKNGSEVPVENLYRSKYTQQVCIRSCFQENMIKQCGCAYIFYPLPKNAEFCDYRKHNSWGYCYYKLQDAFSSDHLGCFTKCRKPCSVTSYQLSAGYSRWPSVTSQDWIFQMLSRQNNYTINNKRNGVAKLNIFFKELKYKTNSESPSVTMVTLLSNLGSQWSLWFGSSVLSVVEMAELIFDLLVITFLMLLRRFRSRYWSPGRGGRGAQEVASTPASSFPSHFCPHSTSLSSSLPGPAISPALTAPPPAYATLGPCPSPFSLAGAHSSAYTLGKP
T1 sequence (Q95165 1-641): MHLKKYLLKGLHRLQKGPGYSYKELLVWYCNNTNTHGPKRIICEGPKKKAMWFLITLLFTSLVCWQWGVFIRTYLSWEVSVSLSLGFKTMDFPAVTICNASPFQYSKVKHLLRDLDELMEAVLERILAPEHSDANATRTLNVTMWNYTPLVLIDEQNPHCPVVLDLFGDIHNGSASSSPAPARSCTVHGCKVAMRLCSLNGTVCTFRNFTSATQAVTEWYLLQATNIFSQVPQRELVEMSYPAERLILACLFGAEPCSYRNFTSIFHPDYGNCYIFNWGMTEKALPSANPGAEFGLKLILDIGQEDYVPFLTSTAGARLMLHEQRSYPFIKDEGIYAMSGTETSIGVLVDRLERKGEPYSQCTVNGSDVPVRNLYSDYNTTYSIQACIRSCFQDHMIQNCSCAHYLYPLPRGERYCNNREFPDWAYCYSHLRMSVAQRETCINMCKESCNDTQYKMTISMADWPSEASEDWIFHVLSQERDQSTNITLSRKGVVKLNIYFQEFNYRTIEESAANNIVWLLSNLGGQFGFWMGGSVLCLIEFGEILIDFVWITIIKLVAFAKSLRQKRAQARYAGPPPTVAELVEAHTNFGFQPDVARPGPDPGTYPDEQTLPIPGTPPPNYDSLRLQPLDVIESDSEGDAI
T1 sequence (A0A8I3MKE6 1-646): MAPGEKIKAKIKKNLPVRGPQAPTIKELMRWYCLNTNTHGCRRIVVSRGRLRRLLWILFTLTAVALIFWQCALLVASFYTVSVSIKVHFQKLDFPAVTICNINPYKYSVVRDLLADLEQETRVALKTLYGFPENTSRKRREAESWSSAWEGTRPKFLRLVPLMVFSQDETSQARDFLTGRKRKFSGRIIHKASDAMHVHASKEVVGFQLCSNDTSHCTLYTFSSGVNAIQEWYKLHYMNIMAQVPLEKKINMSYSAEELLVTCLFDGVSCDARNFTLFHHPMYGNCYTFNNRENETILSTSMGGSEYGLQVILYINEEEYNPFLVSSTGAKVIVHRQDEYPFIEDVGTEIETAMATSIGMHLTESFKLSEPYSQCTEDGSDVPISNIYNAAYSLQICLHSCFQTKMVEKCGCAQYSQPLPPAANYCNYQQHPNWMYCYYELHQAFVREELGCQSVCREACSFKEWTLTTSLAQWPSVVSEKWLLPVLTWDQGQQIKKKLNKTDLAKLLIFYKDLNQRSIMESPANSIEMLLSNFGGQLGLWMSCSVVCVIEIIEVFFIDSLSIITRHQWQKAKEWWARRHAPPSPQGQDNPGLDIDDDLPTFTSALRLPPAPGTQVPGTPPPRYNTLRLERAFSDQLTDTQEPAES
The experiment in a line: In vitro sodium channel blocking activity and reversibility (short circuit current, Ussing chambers). It is filed as cell-based, canine. As to the method:
One assay used to assess mechanism of action and/or potency of the compounds of the present invention involves the determination of lumenal drug inhibition of airway epithelial sodium currents measured under short circuit current (ISC) using airway epithelial monolayers mounted in Ussing chambers. Cells obtained from freshly excised human, dog, sheep or rodent airways are seeded onto porous 0.4 micron Snapwell™ Inserts (CoStar), cultured at air-liquid interface (ALI) conditions in hormonally defined media, and assayed for sodium transport activity (ISC) while bathed in Krebs Bicarbonate Ringer (KBR) in Using chambers. All test drug additions are to the lumenal bath with half-log dose addition protocols (from 1×10^−11 M to 3×10^−5 M), and the cumulative change in ISC (inhibition) recorded. All drugs are prepared in dimethyl sulfoxide as stock solutions at a concentration of 1×10^−2 M and stored at −20° C. […] After the maximal concentration ([…]) is administered, the lumenal bath is exchanged three times with fresh drug-free KBR solution, and the resultant ISC measured after each wash for approximately 5 minutes in duration. Reversibility is defined as the percent return to the baseline value for sodium current after the third wash. All data from the voltage clamps are collected via a computer interface and analyzed off-line.
Dose-effect relationships for all compounds are considered and analyzed by the Prism 3.0 program. […] The potency of the sodium channel blocking activity of representative compounds in freshly excised cell from canine airways is shown in Table 2.

A further data set concerns Rat Hepatocyte. In words: Rat hepatocyte metabolism. Particulars: 24-hour incubation. It is filed as in vitro ADME.
Data set [1] in a line: Human plasma protein binding. It is filed as in vitro ADME. Conditions: n=6, read-out: Human Plasma Protein Binding, bound to plasma proteins (converted).

The structures appear in SMILES notation.

`CN(C)C(=O)[C@H](CCCCNC(=N)N)NC(=O)[C@H](CCc1ccc(CCCCNC(=N)NC(=O)c2nc(Cl)c(N)nc2N)cc1)N(C)C` [Compound I, 3,5-diamino-6-chloro-N-(N-(4-(4-((S)-3-(dimethylamino)-4-((S)-1-(dimethylamino)-6-guanidino-1-oxohexan-2-ylamino)-4-oxobutyl)phenyl)butyl)carbamimidoyl)pyrazine-2-carboxamide]: at ENaC (Ussing chamber, primary cultures of canine bronchial epithelial cells), the “Potency compared to amiloride” value is on record as above 100 fold. Moreover, on ENaC (canine bronchial epithelial cells, n=5, read-out: Potency (IC50) on Canine Bronchial Epithelial Cells), the concentration for half-maximal inhibition (IC50) came out at 5.3 nM. Further, at ENaC (with 3 washes, n=3, read-out: Reversal of Maximal Effect on Canine Bronchial Epithelial Cells (effect lost)), the Emax amounted to 6.8 ± 5.1%. For the same compound, in the data set with Rat Hepatocyte, the “Rat Hepatocyte Metabolism” value was “No evidence of significant metabolism”. The fraction unbound in data set [1] was 0.2.
